Reference: PubChem BioAssay AID179 (DTP/NCI, 2004)
Active and inactive are the calls of the source.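 The calls were made as follows: active = compounds giving half or more protection of infected cells from virus-caused growth loss, again on retest; inactive = the rest.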

Test system: CEM cells HIV-1 protection, formazan growth assay
Assay: NCI AIDS Antiviral Assay
Conditions: for IC50: measured here: growth of uninfected CEM cells
Method in brief: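 Protection of CEM cells against HIV-1 measured as cell growth via soluble formazan read-out, with five concentrations tested on both infected and uninfected cells; failure to protect may reflect toxicity.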

Compound	EC50	IC50	outcome
O=C(N/N=C(/c1nc2ccc([N+](=O)[O-])cc2[nH]c1=O)C(O)c1ccc([N+](=O)[O-])cc1)c1ccncc1 (stereo unspecified)	> 138 µM	129 µM	–
O=S1(=O)Oc2cccc3cccc1c23	–	–	inactive
CCOC(=O)C(C(=N)C(=N)C(C(=O)O)C(=O)OCC)C(=O)O (stereo unspecified)	–	–	inactive
O=S(Cc1ccccc1)OOCCCCOS(=O)OCc1ccccc1 (stereo unspecified)	> 200 µM	4.17 µM	–
CC(=O)c1cccc(N2COC(C)(C)c3nc4ccccc4n3C2)c1	> 200 µM	107 µM	–
CCN(CC)CC(C)(C)C(=O)/C=C/c1ccc(C)cc1	–	–	inactive
CC(C)c1cc2c(O)c(c1)Cc1cc(C(C)C)cc(c1O)Cc1cc(C(C)C)cc(c1O)Cc1cc(C(C)C)cc(c1O)Cc1cc(C(C)C)cc(c1O)Cc1cc(C(C)C)cc(c1O)C2	> 14.5 µM	> 14.5 µM	–
COC(=O)C12CC3CC(C1)CC(C(=O)OC)(C3)C2	> 513 µM	363 µM	–
COc1cc([N+](=O)[O-])ccc1NC(=O)Nc1cc(C)ccn1	> 200 µM	> 200 µM	–
O=C(OC1Cc2c(O)cc(O)cc2OC1c1ccc(O)c(O)c1)c1cc(O)c(O)c(O)c1 (stereo unspecified)	> 56.2 µM	49 µM	–
Cc1cc(=O)oc2cc(OCC(O)COC(C)C)ccc12 (stereo unspecified)	> 200 µM	129 µM	–
N#Cc1nc2ccccc2nc1N1CCN(c2ccc([N+](=O)[O-])cc2)CC1	> 200 µM	> 200 µM	–
O=C1CC(=O)Nc2ccccc2N1	> 200 µM	> 200 µM	–
CN(CCC#N)c1ccc(/C=C2\SC(=S)NC2=O)cc1	> 200 µM	34.7 µM	–
O=C(O)c1ccc(O)c(N=Nc2cc(S(=O)(=O)O)c3cccnc3c2O)c1	81.3 µM	224 µM	–
O=C(Nc1cccc(Cc2cccc(NC(=O)c3ccccc3)c2)c1)c1ccccc1	> 9.33 µM	> 9.33 µM	–
Cc1cccc(C)c1NC(=O)CCCC(=O)CC(=O)/C=C/c1ccccc1	> 501 µM	> 501 µM	–
Cn1cc(C(N)=O)ccc1=N	> 200 µM	> 200 µM	–
S=c1sc2cscc2s1	> 52.5 µM	30.9 µM	–
O=C1NC(CSSCC2NC(=O)N(c3ccccc3)C2=O)C(=O)N1c1ccccc1 (stereo unspecified)	> 200 µM	1.12 µM	–
Nc1n[n+]([O-])c2cnccc2[n+]1[O-]	> 200 µM	70.8 µM	–
N#Cc1c[nH]n2ccnc12	> 200 µM	> 200 µM	–
S=C(/N=N/c1[nH]c2ccccc2c1NNC(=S)NC12CC3CC(CC(C3)C1)C2)NC12CC3CC(CC(C3)C1)C2	–	–	inactive

Compound	EC50	IC50	outcome
CCCN(CCCCC(NC(C)=O)C(=O)NCc1ccccc1)C(=O)NCCCl (stereo unspecified)	> 589 µM	> 589 µM	–
O=C1NC(=O)/C(=C/c2ccc(S(=O)(=O)N/N=C/c3ccc(Cl)cc3)cc2)N1	> 200 µM	123 µM	–
c1ccc(-c2nnc(SCc3nc4ccccc4[nH]3)o2)cc1	> 200 µM	31.6 µM	–
CCOC(=O)c1c(N)sc2c1C(C(=O)OCC)CC2 (stereo unspecified)	> 200 µM	174 µM	–
COc1cc(C2c3cc4c(c(O)c3C[C@H]3COC(=O)[C@@H]23)OCO4)cc(OC)c1O (stereo partly specified)	> 200 µM	0.0631 µM	–
Nc1c(Cl)ncnc1Nc1ccc(Cc2ccc(Nc3ncnc(Cl)c3N)cc2)cc1	> 79.4 µM	> 79.4 µM	–
O=S1(=O)CSc2ccc3ccccc3c2-c2c1ccc1ccccc21	> 27.5 µM	> 27.5 µM	–
COc1ccc(CCN2CCC(C#N)(c3ccc(OC)c(OC)c3)CC2)cc1OC	> 57.5 µM	> 57.5 µM	–
Nc1ccc2ccc(N3CCNCC3)nc2n1	> 200 µM	46.8 µM	–
C=C[C@@H]1OC(=O)O[C@H]1CO	> 200 µM	> 200 µM	–
CCOC(=O)/C(=C\c1ccc([N+](=O)[O-])cc1)C(C)=O	> 257 µM	64.6 µM	–
COc1cc2c(cc1OC)[C@@H]([C@H](O)c1ccccc1)NCC2	–	–	inactive
CCCCC1(CCO)C(=O)NC(=S)NC1=O	> 200 µM	> 200 µM	–
COC(=O)C1CC(C=[N+](C)C)=C(SC)N1C(=O)OCc1ccccc1 (stereo unspecified)	> 200 µM	191 µM	–
NC1=NS(=O)(=O)N=C(N)C1=Cc1ccc([N+](=O)[O-])o1	> 871 µM	4.9 µM	–
CSc1ccc2nncc(SC)c2c1	> 158 µM	57.5 µM	–
CCc1n[nH]c(=O)n1CCCCCCCCn1c(CC)n[nH]c1=O	> 200 µM	> 200 µM	–
COc1ccc(Cl)cc1C(=O)c1cc(Cl)cc(S(=O)(=O)O)c1OC	> 617 µM	427 µM	–
CCc1cc2c(=O)[nH]c(-c3cccnc3)nc2s1	> 200 µM	> 200 µM	–
COC(=O)/N=[N+](\[O-])C(c1ccccc1)c1ccccc1	> 200 µM	191 µM	–
NC(CSS(=O)(=O)O)=NCCSS(=O)(=O)O	> 200 µM	110 µM	–
CCOC(=O)N1N=NC2C3OC(C[C@@]3(C#N)OC(C)=O)[C@H]21 (stereo partly specified)	–	–	inactive
COC(=O)C(/C(=N/N)C(=O)Nc1cc(Cl)ccc1Cl)c1nc2ccc([N+](=O)[O-])cc2[nH]c1=O (stereo unspecified)	> 138 µM	> 138 µM	–

Compound	EC50	IC50	outcome
CCOP(=O)(OCC)C(Nc1ccc(Cl)cc1)c1ccc(F)cc1 (stereo unspecified)	–	–	inactive
OCCN(CCO)c1nc(N2CCCCC2)c2nc(N(CCO)CCO)nc(N3CCCCC3)c2n1	–	–	inactive
O=c1[nH]c2ccccc2c2c1CCO2	–	–	inactive
CC1C(c2ccccc2)NC(c2ccccc2)CC1(N)C#N (stereo unspecified)	> 123 µM	> 123 µM	–
CN(C)P(=O)(/C(N)=N/Nc1ccc([N+](=O)[O-])cc1)N(C)C	> 158 µM	155 µM	–
CCSC1=[N+](SCC)CCCS1	> 708 µM	269 µM	–
Cc1nc2ccc(Br)cc2c(=O)n1-c1ccc(N)cc1	> 200 µM	> 200 µM	–
CCCCCCCCS(=O)(=O)O	> 200 µM	> 200 µM	–
O=C(OCC1OC(c2nn[nH]n2)C(OC(=O)c2ccccc2)C1OC(=O)c1ccccc1)c1ccccc1 (stereo unspecified)	> 200 µM	70.8 µM	–
O=c1[nH]c(-c2nc3ccccc3c(=O)[nH]2)nc2ccccc12	> 32.4 µM	> 32.4 µM	–
COc1ccc(NC(=O)CC2SC(=Nc3ccccc3C)NC2=O)c([N+](=O)[O-])c1 (stereo unspecified)	–	–	inactive
CC(=O)O[C@H]1C[C@H]2[C@@H](OC(C)=O)/C=C3\C[C@](C)(C(=O)[C@H](O)C(=C1C)C2(C)C)[C@@H](O)C[C@@H]3OC(=O)[C@H](O)[C@H](c1ccccc1)N(C)C	> 200 µM	> 200 µM	–
Cc1nc2ccccc2c(=O)n1-c1ccccc1F	> 708 µM	437 µM	–
CC1C(=O)C(C)C(c2cccs2)N(N=O)C1c1cccs1 (stereo unspecified)	> 58.9 µM	37.2 µM	–
CSC(C)CS(=O)(=O)O (stereo unspecified)	> 200 µM	> 200 µM	–
O=c1c2ccccc2nc(/C=C(\O)c2ccccc2)n1-c1ccccc1Cl	–	–	inactive
COC(=O)C(=O)C(/C=N/C(=S)NC1CCCCC1)=C(\O)c1ccc(F)cc1	> 200 µM	> 200 µM	–
CCOC(=O)C(NC(=O)c1ccccc1)(N1CCN(c2cc3c(cc2F)c(=O)c(C(=O)O)cn3C2CC2)CC1)C(F)(F)F (stereo unspecified)	> 200 µM	20.4 µM	–
CCOC(=O)c1cc2c(nc1N)C(=O)CCC2	> 200 µM	112 µM	–
CCCCCCCCNC(=S)/N=C/c1c(O)c2ccccc2oc1=O	> 200 µM	38.9 µM	–
CCCCNc1nc(C#N)c(N)s1	> 1260 µM	204 µM	–
O=[N+]([O-])C(=C1NCCN1)/C(Cl)=C(\Cl)Br	> 200 µM	16.6 µM	–
CC(=O)Nc1ccc(-c2nnc(SCC(=O)Nc3ccccc3[N+](=O)[O-])o2)cc1	> 24 µM	> 24 µM	–

Compound	EC50	IC50	outcome
CC(=O)NNc1nc(C)c(C(=O)/C=C/c2ccc(NC(C)=O)cc2)s1	> 28.2 µM	> 28.2 µM	–
C/C(N=NS(=O)(=O)c1ccc(C)cc1)=C1\C=CC=CN1O	–	–	inactive
CC(=O)c1sc2n(C)c(=O)c3ccccc3[n+]2c1C	> 200 µM	> 200 µM	–
O=C1C[C@]2(CC(O)CO)CC(O1)[C@@H](I)CC21OCCO1 (stereo partly specified)	> 200 µM	> 200 µM	–
N#Cc1ccc(Nc2nc3nc[nH]c3c(=O)[nH]2)cc1	> 200 µM	> 200 µM	–
O=S(=O)(Sc1ccccc1)c1ccccc1	> 81.3 µM	13.8 µM	–
O=c1[nH]nc(Cc2ccccc2)n1/N=C/c1ccc([N+](=O)[O-])cc1	> 200 µM	> 200 µM	–
O=C(CC1(O)C(=O)Nc2c(Cl)cc(Cl)cc21)c1ccco1 (stereo unspecified)	> 398 µM	83.2 µM	–
CC(=O)O[C@H]1CC[C@@]2(C)C(CC[C@]3(C)C2CC[C@]2(C)Oc4c(C)cc(O)cc4C[C@@H]23)C1(C)C (stereo partly specified)	–	–	inactive
C=C(Br)CN1CCC2(c3ccccc3)C(=O)C([Se]c3ccccc3)CCC12 (stereo unspecified)	> 14.8 µM	> 14.8 µM	–
O=c1ccnc2ccc3n[nH][nH]c3c12	–	–	inactive
COC(=O)CCCC(=O)C1=Nc2ccccc2CN(c2ccc(Cl)cc2)N1	> 200 µM	126 µM	–
C[Si](C)(C)C1(Sc2ccccc2)SCCCS1	–	–	inactive
C=CC(OCC)(OCC)OCC	> 1450 µM	> 1450 µM	–
Fc1nc(Sc2ncnc3nc[nH]c23)nc(-c2c3ccccc3c3sc4ccccc4n23)n1	> 200 µM	97.7 µM	–
N#CC(C(=O)/C(=N/NC(=O)c1ccccc1O)C(C#N)c1ccc(Cl)cc1)c1ccc(Cl)cc1 (stereo unspecified)	> 40.7 µM	22.4 µM	–
O=C(O)C(CS(=O)(=O)O)S(=O)(=O)O (stereo unspecified)	–	–	inactive
COC(=O)C(CC(C)=O)CS(=O)(=O)CC(=O)C(=O)Nc1cccc([N+](=O)[O-])c1 (stereo unspecified)	> 162 µM	> 162 µM	–
OC(Cc1ccc2ccccc2n1)(C(F)(F)Cl)C(F)(F)Cl	> 200 µM	81.3 µM	–
COc1ccccc1/C=C1\SC(=S)NC1=O	> 200 µM	107 µM	–
COc1ccc(-c2oc(/C=N/NC(N)=S)c([N+](=O)[O-])c2-c2ccc(OC)c(OC)c2)cc1OC	> 20.4 µM	> 20.4 µM	–
CCCCCCCCCCCCCOC(=O)CC(C(=O)OCCCCCCCCCCCCC)S(=O)(=O)O (stereo unspecified)	> 200 µM	102 µM	–
